Assay results from ChEMBL document CHEMBL1158226, “Comparative study of the vasodilatory effects of three quinazoline alkaloids isolated from Evodia rutaecarpa” (J Nat Prod, 1996).
Calls of active or inactive are those of the source. No cut-off for these calls is given here.

Tests used:
Aorta [1] = assay: Vasodilatory activity in endothelium-denuded Sprague-Dawley rat thoracic aortic ring assessed as inhibition of phenylephrine-induced contraction preincubated with TEA for 1 hr; assay type: functional, tissue-based
Aorta [2] = assay: Vasodilatory activity in Sprague-Dawley rat endothelium-denuded thoracic aortic ring assessed as inhibition of phenylephrine-induced contraction; assay type: functional, tissue-based
Aorta [3] = assay: Vasodilatory activity in Sprague-Dawley rat endothelium-intact thoracic aortic ring assessed as inhibition of phenylephrine-induced contraction at 0.1 to 100 uM; assay type: functional
[4] = Binding affinity to DHP binding site of L-type calcium channel at > 100 uM by radioligand binding assay
Aorta [5] = assay: Vasodilatory activity in Sprague-Dawley rat endothelium-intact thoracic aortic ring assessed as inhibition of phenylephrine-induced contraction; assay type: functional, tissue-based
Aorta [6] = assay: Vasodilatory activity in Sprague-Dawley rat endothelium-denuded thoracic aortic ring assessed as inhibition of phenylephrine-induced contraction at 0.1 to 100 uM; assay type: functional
Aorta [7] = assay: Vasodilatory activity in endothelium-denuded Sprague-Dawley rat thoracic aortic ring assessed as inhibition of phenylephrine-induced contraction preincubated with L-NAME for 10 mins; assay type: functional, tissue-based
[8] = target: T1, Adrenergic receptor alpha-1 (Rattus norvegicus, UniProt P15823+P23944+P43140); assay: Displacement of [3H]prazosin from alpha1 adrenoceptor in rat heart membrane; assay type: cell membranes
T1 sequence (P15823 whole entry): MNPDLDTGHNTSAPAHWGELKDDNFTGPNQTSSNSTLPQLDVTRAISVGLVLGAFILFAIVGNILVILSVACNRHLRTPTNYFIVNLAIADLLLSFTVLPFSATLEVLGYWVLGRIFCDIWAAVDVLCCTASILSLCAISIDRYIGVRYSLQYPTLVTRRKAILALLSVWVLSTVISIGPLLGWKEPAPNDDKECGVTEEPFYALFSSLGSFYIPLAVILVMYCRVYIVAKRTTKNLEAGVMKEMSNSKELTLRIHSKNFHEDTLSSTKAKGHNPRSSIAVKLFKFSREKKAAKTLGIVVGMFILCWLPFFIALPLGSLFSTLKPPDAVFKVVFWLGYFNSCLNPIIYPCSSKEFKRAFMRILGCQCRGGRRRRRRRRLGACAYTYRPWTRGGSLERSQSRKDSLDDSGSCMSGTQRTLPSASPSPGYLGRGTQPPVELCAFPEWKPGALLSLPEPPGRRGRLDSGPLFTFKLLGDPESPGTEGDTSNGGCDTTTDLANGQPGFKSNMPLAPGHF
T1 sequence (P23944 whole entry): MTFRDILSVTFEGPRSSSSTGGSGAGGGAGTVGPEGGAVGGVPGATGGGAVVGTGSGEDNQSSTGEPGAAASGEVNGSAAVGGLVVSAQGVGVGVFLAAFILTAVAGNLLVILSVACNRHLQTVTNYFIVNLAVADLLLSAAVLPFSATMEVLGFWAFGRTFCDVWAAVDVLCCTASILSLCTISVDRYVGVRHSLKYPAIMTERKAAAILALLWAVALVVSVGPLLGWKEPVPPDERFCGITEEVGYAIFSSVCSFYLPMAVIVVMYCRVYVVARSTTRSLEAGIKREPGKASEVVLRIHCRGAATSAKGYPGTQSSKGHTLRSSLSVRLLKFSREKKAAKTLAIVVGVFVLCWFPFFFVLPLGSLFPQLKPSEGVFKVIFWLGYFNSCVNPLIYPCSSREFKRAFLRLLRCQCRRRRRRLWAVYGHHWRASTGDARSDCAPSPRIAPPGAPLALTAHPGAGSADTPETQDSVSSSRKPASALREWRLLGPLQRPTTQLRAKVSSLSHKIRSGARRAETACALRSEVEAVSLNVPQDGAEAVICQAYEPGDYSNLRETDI
T1 sequence (P43140 whole entry): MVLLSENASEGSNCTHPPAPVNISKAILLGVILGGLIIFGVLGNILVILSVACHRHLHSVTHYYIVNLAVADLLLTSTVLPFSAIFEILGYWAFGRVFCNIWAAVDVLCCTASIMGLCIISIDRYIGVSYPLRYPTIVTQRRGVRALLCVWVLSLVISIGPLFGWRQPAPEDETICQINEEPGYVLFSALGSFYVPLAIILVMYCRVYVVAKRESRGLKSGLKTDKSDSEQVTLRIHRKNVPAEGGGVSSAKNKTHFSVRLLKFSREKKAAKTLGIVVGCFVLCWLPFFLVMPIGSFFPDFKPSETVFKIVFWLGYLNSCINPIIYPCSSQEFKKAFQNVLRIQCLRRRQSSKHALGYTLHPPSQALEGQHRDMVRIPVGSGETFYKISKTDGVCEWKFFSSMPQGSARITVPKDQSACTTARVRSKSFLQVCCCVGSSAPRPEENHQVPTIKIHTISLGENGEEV

Aorta [9] = assay: Vasodilatory activity in endothelium-denuded Sprague-Dawley rat thoracic aortic ring assessed as inhibition of phenylephrine-induced contraction in absence of L-NAME; assay type: functional, tissue-based
[10] = Antagonist activity at alpha-adrenoceptor in Sprague-Dawley rat endothelium denuded thoracic aorta assessed as inhibition of phenylephrine-induced contraction; assay type: functional, tissue-based
Aorta [11] = assay: Vasodilatory activity in Sprague-Dawley rat thoracic aortic ring assessed as inhibition of potassium chloride-induced contraction; assay type: functional, tissue-based
[12] = Binding affinity to DHP binding site of L-type calcium channel by radioligand binding assay
[13] = Antagonist activity at 5-HT receptor in Sprague-Dawley rat endothelium denuded thoracic aorta assessed as inhibition of 5HT-induced contraction; assay type: functional, tissue-based
Aorta [14] = assay: Vasodilatory activity in Sprague-Dawley rat endothelium-intact thoracic aortic ring assessed as inhibition of phenylephrine-induced contraction at 100 uM; assay type: functional; design: scale not given: the % may be the effect or the level left

Structure (SMILES)	Activity (Aorta [1])	EC50 (Aorta [2]) [nM]	Emax (Aorta [3]) [%]	Activity [4]	EC50 (Aorta [5]) [nM]	Emax (Aorta [6]) [%]	EC50 (Aorta [7]) [nM]	Ki [8] [nM]	EC50 (Aorta [9]) [nM]	pA2 [10]	Activity (Aorta [11])	Activity [12]	pA2 [13]	Activity (Aorta [14]) [%]
C[n+]1c2n(c(=O)c3ccccc31)CCc1c-2[nH]c2ccccc12 [DEHYDROEVODIAMINE]	Active	7780	100	Active	1640	100	5830	2400	1600	6.89	–	–	–	–
CN1c2ccccc2C(=O)N2CCc3c([nH]c4ccccc34)[C@@H]21 [EVODIAMINE]	Active	8140	100	–	930	49.8	2920	–	–	–	Active	inactive	6.25	–
O=c1c2ccccc2nc2n1CCc1c-2[nH]c2ccccc12 [RUTAECARPINE]	Active	1750	96	–	1050	23	–	–	–	–	–	inactive	–	72
